{"source": "patent US20130072438A1", "about": "“OPIOID PEPTIDE ESTERS AND METHODS OF USE” (The United States Government as represented by the …, priority 2011, published 2013)", "tested_on": "male Wistar rats", "test": "Cold immersion tail withdrawal latency after intraperitoneal dosing", "format": "in vivo, rat", "conditions": "for Trial 1 Latency (s), post-treatment cold immersion response / Trial 2 Latency (s), post-treatment cold immersion response / Trial 3 Latency (s), post-treatment cold immersion response: from 30 min post-dose, -20° C bath", "method": "Three male Wistar rats at 8 weeks of age (Taconic Farms, Germantown, N.Y.) were utilized in the experiment. Each rat was grasped firmly, while the distal half of its tail was immersed in a liquid bath at a temperature of −20° C. Latency periods (in seconds) were measured from the time that tails were immersed to the time that the rat removed its tail from the liquid. Prior to dosing, rats were given three trials, approximately ten minutes apart. […] Post-dose trials were also approximately ten minutes apart. Animals were examined for acute adverse effects to both the cold liquid bath and the test article.", "note": "Residues, ends and D or L forms follow the SMILES beside them."}
{"smiles": "CCOC(=O)C1CCCN1C(=O)C(N)Cc1ccc(O)cc1", "note": "(stereo not drawn) [Tyr-Pro-Ethyl] (H-Tyr-Pro-OEt; configuration not given here)", "values": [{"measurement": "Mean latency of three trials, post-treatment cold immersion response", "setting": "animal 1, 1 mg i.p.", "result": 15.6, "unit": "s"}, {"measurement": "Post-treatment mean with longest latency period eliminated", "setting": "animal 1, 1 mg i.p.", "result": 12.4}, {"measurement": "Trial 1 Latency (s), post-treatment cold immersion response", "setting": "animal 1, 1 mg i.p.", "result": 13.2, "unit": "s"}, {"measurement": "Trial 2 Latency (s), post-treatment cold immersion response", "setting": "animal 1, 1 mg i.p.", "result": 22.1, "unit": "s"}, {"measurement": "Trial 3 Latency (s), post-treatment cold immersion response", "setting": "animal 1, 1 mg i.p.", "result": 11.5, "unit": "s"}, {"measurement": "Mean latency of three trials, post-treatment cold immersion response", "setting": "animal 2, 2 mg i.p.", "result": 7.2, "unit": "s"}, {"measurement": "Post-treatment mean with longest latency period eliminated", "setting": "animal 2, 2 mg i.p.", "result": 4.7}, {"measurement": "Trial 1 Latency (s), post-treatment cold immersion response", "setting": "animal 2, 2 mg i.p.", "result": 4.7, "unit": "s"}, {"measurement": "Trial 2 Latency (s), post-treatment cold immersion response", "setting": "animal 2, 2 mg i.p.", "result": 4.7, "unit": "s"}, {"measurement": "Trial 3 Latency (s), post-treatment cold immersion response", "setting": "animal 2, 2 mg i.p.", "result": 12.2, "unit": "s"}, {"measurement": "Mean latency of three trials, post-treatment cold immersion response", "setting": "animal 3, 0.5 mg i.p.", "result": 7.2167, "unit": "s"}, {"measurement": "Post-treatment mean with longest latency period eliminated", "setting": "animal 3, 0.5 mg i.p.", "result": 6.3}, {"measurement": "Trial 1 Latency (s), post-treatment cold immersion response", "setting": "animal 3, 0.5 mg i.p.", "result": 6.45, "unit": "s"}, {"measurement": "Trial 2 Latency (s), post-treatment cold immersion response", "setting": "animal 3, 0.5 mg i.p.", "result": 6.2, "unit": "s"}, {"measurement": "Trial 3 Latency (s), post-treatment cold immersion response", "setting": "animal 3, 0.5 mg i.p.", "result": 9.0, "unit": "s"}, {"measurement": "Crossing of the BBB", "setting": "rats, at the doses given (0.5, 1, 2 mg i.p.), inferred from latency data", "result": "able to cross the BBB"}, {"measurement": "Hydrolysis by esterases", "setting": "rats, cerebrospinal fluid, inferred from latency data", "result": "hydrolyzed by esterases in the cerebrospinal fluid"}, {"measurement": "Effect on sensitivity to noxious stimulus", "setting": "rats, cold immersion, 0.5, 1, 2 mg i.p.", "result": "increase sensitivity to noxious stimulus"}]}
